Source: patent US11780821B2, “Inhibitors of fibroblast activation protein” (Praxis Biotech LLC, priority 2017, dated 2023)
pIC50: −log10 of the molar value. Like-named read-outs stand apart in the source and are kept apart here.

Assays:
Assay type in all cases: biochemical
[1] = target: T1, recombinant human FAPα (rhFAPα) (Homo sapiens, UniProt Q12884); assay: FAPα enzymatic exopeptidase (dipeptidase) activity assay; conditions: for pIC50: exopeptidase, read-out: rhFAPα (exo IC50)
T1 construct: purchased R&S system (so in the source)
T1 sequence (Q12884 1-760): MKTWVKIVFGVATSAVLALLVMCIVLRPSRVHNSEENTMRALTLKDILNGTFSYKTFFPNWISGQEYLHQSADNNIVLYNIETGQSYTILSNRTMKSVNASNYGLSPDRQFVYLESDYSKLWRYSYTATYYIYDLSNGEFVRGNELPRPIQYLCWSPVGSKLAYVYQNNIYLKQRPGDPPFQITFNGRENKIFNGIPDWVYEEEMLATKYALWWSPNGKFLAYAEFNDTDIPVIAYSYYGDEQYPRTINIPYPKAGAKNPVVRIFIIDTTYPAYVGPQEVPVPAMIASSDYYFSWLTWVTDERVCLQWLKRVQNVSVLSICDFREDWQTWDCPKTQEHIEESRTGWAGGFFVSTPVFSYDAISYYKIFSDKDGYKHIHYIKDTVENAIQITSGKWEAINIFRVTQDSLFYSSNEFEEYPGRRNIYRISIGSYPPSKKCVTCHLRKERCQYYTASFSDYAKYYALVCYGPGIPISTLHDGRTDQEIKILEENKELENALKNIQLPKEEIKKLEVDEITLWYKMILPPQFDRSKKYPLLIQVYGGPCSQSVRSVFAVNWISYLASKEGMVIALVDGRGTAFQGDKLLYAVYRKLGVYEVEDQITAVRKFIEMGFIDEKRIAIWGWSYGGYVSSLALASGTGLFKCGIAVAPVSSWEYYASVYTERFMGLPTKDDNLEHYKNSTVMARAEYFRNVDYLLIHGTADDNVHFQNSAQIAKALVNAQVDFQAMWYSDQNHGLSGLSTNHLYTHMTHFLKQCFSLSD

[2] = target: T2, recombinant mouse DPPIV (rmDPPIV) (Mus musculus, UniProt P28843); assay: DPPIV enzymatic activity assay; conditions: H-Gly-Pro-pNA substrate
T2 construct: purchased R&S system (so in the source)
T2 sequence (P28843 whole entry): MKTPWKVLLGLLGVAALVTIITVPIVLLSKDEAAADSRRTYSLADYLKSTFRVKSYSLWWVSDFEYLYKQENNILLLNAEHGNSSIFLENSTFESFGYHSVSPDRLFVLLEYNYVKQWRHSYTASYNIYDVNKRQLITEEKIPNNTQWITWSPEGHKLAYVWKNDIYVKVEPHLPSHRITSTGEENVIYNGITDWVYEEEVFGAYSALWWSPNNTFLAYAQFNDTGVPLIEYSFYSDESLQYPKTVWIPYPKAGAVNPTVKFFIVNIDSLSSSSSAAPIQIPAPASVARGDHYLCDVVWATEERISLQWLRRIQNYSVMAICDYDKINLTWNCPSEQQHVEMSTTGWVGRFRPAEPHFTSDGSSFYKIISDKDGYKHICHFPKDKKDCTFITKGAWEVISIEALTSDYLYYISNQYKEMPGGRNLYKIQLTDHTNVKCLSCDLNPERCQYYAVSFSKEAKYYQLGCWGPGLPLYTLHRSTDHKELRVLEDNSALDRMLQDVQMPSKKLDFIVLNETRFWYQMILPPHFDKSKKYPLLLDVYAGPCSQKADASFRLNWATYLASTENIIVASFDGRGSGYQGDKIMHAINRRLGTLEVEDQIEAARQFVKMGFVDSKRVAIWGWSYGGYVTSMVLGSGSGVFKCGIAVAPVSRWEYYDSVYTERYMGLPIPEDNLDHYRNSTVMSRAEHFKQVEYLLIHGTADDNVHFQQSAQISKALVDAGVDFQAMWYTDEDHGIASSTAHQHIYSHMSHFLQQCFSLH

[3] = target: T3, recombinant mouse PREP (rmPREP) (Mus musculus, UniProt Q9QUR6); assay: PREP enzymatic activity assay; conditions: Z-Gly-Pro-AMC substrate
T3 construct: purchased R&S system (so in the source)
T3 sequence (Q9QUR6 whole entry): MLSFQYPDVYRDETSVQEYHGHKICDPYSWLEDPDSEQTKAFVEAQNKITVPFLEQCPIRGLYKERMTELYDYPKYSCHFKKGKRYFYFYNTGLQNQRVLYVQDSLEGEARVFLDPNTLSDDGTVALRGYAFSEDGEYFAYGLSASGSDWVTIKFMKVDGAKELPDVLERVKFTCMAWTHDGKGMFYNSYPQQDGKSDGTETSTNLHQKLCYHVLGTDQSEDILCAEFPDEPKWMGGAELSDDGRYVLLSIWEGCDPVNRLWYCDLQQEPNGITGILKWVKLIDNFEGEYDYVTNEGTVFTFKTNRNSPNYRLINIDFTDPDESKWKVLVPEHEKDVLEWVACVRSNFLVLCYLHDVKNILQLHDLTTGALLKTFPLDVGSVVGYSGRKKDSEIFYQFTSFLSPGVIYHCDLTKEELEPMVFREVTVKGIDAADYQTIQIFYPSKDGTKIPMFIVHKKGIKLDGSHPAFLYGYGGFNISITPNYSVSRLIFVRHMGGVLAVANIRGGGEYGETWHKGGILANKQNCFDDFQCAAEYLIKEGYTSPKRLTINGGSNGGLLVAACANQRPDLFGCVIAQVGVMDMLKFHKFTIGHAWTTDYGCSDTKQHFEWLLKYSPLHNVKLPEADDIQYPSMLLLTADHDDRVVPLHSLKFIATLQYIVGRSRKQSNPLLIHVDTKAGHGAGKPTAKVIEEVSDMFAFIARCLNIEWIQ
Method: (§1) 7-Amino-4-Methylcoumarin (AMC) release was detected by measuring fluorescence at Ex/Em 380/460 nm using a Multifunction Microplate Reader (Synergy 4, Biotek). All measurements were carried out in triplicate.

[4] = target: T4, recombinant human DPPIV (rhDPPIV) (Homo sapiens, UniProt P27487); assay: DPPIV enzymatic activity assay; conditions: H-Gly-Pro-pNA substrate
T4 construct: purchased R&S system (so in the source)
T4 sequence (P27487 whole entry): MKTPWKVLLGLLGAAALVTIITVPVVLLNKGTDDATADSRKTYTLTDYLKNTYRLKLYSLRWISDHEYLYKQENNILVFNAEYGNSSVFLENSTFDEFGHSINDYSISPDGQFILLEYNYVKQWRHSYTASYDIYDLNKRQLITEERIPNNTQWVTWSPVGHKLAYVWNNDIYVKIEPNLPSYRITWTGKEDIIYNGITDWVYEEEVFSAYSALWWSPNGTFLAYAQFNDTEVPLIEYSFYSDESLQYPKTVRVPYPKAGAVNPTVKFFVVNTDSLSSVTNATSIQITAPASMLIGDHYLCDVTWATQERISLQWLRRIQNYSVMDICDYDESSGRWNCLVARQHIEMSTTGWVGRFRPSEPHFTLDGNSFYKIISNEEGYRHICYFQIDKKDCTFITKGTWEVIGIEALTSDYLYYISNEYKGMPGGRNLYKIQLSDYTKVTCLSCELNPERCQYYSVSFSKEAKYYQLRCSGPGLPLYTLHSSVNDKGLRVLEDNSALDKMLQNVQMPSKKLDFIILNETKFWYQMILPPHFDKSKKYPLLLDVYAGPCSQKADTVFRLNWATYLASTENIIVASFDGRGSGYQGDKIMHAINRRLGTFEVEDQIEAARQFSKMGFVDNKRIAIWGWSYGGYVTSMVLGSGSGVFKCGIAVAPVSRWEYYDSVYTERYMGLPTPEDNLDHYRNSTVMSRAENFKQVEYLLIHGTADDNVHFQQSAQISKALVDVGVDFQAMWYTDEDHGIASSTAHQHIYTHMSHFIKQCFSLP

[5] = target: T5, recombinant mouse FAPα (rmFAPα) (Mus musculus, UniProt P97321); assay: FAPα enzymatic exopeptidase (dipeptidase) activity assay; conditions: for pIC50: exopeptidase, read-out: rmFAPα (exo IC50)
T5 construct: purchased R&S system (so in the source)
T5 sequence (P97321 1-761): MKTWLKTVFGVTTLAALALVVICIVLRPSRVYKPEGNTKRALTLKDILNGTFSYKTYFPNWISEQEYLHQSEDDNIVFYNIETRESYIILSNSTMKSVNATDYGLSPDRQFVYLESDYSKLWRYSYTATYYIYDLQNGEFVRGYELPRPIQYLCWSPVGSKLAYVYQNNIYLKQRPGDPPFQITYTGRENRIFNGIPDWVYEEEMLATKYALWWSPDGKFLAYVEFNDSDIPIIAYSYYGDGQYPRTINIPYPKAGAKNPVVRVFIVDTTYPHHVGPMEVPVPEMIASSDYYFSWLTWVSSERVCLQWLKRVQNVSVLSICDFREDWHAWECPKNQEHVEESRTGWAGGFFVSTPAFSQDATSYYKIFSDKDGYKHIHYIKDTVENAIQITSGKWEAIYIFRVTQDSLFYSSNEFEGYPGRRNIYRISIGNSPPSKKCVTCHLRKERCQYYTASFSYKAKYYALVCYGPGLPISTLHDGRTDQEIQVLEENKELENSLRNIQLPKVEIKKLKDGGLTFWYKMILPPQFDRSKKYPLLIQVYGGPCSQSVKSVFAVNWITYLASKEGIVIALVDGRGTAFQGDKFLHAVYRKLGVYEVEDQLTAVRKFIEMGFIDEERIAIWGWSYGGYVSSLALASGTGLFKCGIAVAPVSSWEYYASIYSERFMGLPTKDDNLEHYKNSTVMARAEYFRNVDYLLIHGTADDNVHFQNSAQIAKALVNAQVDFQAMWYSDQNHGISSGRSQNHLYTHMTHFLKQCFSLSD

[6] = target: T5, recombinant mouse FAPα (rmFAPα); assay: as above; conditions: 1 μM test compound; Z-Gly-Pro-AMC substrate; read-out: rmFAPα (% exo inh @ 1 μM)
Method: FAPα enzymatic exopeptidase (dipeptidase) activity assay. […] 7-Amino-4-Methylcoumarin (AMC) release was detected by measuring fluorescence at Ex/Em 380/460 nm using a Multifunction Microplate Reader (Synergy 4, Biotek). All measurements were carried out in duplicate. […] For the calculations, the average measurements from reactions containing only vehicle and substrate, without enzyme, were used as a blank and were subtracted from the rest of the measurements. Percent inhibition was calculated using the average measurements from reactions containing vehicle, enzyme, and substrate as the maximum of enzymatic activity. Measurements were performed as a single point.

[7] = target: T6, recombinant human PREP (rhPREP) (Homo sapiens, UniProt P48147); assay: PREP enzymatic activity assay; conditions: Z-Gly-Pro-AMC substrate
T6 sequence (P48147 1-710): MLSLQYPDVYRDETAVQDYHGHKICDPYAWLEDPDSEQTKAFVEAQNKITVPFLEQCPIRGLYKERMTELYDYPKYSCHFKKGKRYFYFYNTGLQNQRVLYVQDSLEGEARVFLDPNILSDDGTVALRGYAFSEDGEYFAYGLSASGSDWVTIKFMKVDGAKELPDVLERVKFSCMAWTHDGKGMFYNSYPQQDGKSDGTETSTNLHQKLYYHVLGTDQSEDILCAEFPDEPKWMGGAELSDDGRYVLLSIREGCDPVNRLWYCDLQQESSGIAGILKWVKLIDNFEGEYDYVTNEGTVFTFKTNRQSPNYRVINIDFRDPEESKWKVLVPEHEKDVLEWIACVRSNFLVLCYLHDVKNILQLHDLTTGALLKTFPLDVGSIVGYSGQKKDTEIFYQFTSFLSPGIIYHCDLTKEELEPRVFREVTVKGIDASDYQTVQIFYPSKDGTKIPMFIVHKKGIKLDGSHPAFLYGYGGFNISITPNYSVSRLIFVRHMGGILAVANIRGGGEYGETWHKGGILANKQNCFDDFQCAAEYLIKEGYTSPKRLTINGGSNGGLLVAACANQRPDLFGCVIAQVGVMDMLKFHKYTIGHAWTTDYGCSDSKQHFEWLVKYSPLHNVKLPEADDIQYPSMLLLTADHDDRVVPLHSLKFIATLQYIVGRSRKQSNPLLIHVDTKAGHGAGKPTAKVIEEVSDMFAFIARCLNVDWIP
Method: as §1

[8] = target: T7, recombinant human DPP9 (rhDPP9) (Homo sapiens, UniProt Q86TI2); assay: DPP9 enzymatic activity assay; conditions: H-Gly-Pro-AMC substrate
T7 construct: purchased R&S system (so in the source)
T7 sequence (Q86TI2 whole entry): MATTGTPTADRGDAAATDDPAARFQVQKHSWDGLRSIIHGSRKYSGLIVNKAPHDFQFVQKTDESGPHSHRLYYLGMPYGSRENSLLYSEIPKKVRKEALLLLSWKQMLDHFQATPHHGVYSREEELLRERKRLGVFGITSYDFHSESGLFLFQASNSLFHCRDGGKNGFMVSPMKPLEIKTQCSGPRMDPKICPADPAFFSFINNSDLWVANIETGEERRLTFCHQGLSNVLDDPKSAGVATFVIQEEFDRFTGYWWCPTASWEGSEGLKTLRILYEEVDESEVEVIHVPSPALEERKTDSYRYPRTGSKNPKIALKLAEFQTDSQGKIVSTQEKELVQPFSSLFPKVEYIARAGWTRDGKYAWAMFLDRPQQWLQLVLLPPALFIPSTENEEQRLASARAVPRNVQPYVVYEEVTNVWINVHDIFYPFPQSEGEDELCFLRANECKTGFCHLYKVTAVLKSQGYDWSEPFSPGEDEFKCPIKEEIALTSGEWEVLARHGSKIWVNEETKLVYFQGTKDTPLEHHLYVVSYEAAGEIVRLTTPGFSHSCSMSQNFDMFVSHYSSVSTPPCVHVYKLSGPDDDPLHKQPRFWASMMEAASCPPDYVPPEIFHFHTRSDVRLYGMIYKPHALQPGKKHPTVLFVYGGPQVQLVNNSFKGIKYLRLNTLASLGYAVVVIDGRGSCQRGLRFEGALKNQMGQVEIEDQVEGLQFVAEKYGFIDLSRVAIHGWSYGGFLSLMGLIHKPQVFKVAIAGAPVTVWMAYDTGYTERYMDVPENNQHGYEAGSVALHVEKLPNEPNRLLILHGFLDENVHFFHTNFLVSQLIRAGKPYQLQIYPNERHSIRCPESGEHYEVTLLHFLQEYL
Method: as §1

Compound | pIC50 ([1]; Table 2, Z-Gly-Pro-AMC) | pIC50 ([1]; Table 3) | inhibition at 1 µM ([1]; read-out: rhFAPα (% exo inh @ 1 μM)) [%] | pIC50 [2] | pIC50 [3] | pIC50 ([5]; Table 2, Z-Gly-Pro-AMC) | pIC50 ([5]; Table 3) | inhibition at 1 µM [6] [%] | pIC50 [7] | pIC50 [8] | pIC50 [4] | inhibition at 1 µM ([5]; read-out: rmFAPα (% exo inh @ 1 μM)) [%]
Cn1cc(C(=O)NCC(=O)N2CC(F)(F)C[C@H]2C#N)ccc1=O [Compound 16, (S)—N-(2-(2-cyano-4,4-difluoropyrrolidin-1-yl)-2-oxoethyl)-1-methyl-6-oxo-1,6-dihydropyridine-3-carboxamide] | > 6.00 | > 6.00 | > 50 | < 5.00 | < 5.00 | – | – | – | – | – | – | –
N#C[C@@H]1CC(F)(F)CN1C(=O)CNC(=O)c1ccc(=O)[nH]c1 [Example 6, (S)—N-(2-(2-cyano-4,4-difluoropyrrolidin-1-yl)-2-oxoethyl)-6-oxo-1,6-dihydropyridine-3-carboxamide] | > 6.00 | – | – | < 5.00 | – | > 6.00 | > 6.00 | – | – | – | < 5.00 | > 50
N#C[C@@H]1CC(F)(F)CN1C(=O)CNC(=O)c1cn(C2CC2)c(=O)c2ccccc12 [Example 3, (S)—N-(2-(2-cyano-4,4-difluoropyrrolidin-1-yl)-2-oxoethyl)-2-cyclopropyl-1-oxo-1,2-dihydroisoquinoline-4-carboxamide] | – | – | – | – | – | – | – | 25 to 50 | – | – | – | –
N#C[C@@H]1CC(F)(F)CN1C(=O)CNC(=O)c1ccc2ncccc2c1 [Example 4, (S)—N-(2-(2-cyano-4,4-difluoropyrrolidin-1-yl)-2-oxoethyl)quinoline-6-carboxamide] | > 6.00 | – | – | 5.00 to 6.00 | < 5.00 | > 6.00 | > 6.00 | > 50 | < 5.00 | – | < 5.00 | –
N#C[C@@H]1CC(F)(F)CN1C(=O)CNC(=O)c1ccc2nc(O)ccc2c1 [Compound 10, (S)—N-(2-(2-cyano-4,4-difluoropyrrolidin-1-yl)-2-oxoethyl)-2-hydroxyquinoline-6-carboxamide] | – | – | – | – | – | – | – | 25 to 50 | – | – | – | –

Second part, led by results:

pIC50 ([1]; Table 2, Z-Gly-Pro-AMC) | pIC50 ([1]; Table 3) | inhibition at 1 µM ([1]; read-out: rhFAPα (% exo inh @ 1 μM)) [%] | pIC50 [2] | pIC50 [3] | pIC50 ([5]; Table 2, Z-Gly-Pro-AMC) | pIC50 ([5]; Table 3) | inhibition at 1 µM [6] [%] | pIC50 [7] | pIC50 [8] | Compound | pIC50 [4] | inhibition at 1 µM ([5]; read-out: rmFAPα (% exo inh @ 1 μM)) [%]
– | – | – | – | – | – | – | < 25 | – | – | N#C[C@@H]1CC(F)(F)CN1C(=O)CNC(=O)C1Cc2ccccc2C1 [Example 7, (S)—N-(2-(2-cyano-4,4-difluoropyrrolidin-1-yl)-2-oxoethyl)-2,3-dihydro-1H-indene-2-carboxamide] | – | –
> 6.00 | > 6.00 | – | < 5.00 | > 6.00 | > 6.00 | > 6.00 | > 50 | – | < 5.00 | Cn1cc(C(=O)NCC(=O)N2CC(F)(F)C[C@H]2C#N)c2ccccc2c1=O [Example 9, (S)—N-(2-(2-cyano-4,4-difluoropyrrolidin-1-yl)-2-oxoethyl)-2-methyl-1-oxo-1,2-dihydroisoquinoline-4-carboxamide] | – | –
